Data published in the NIST ThermoML archive (doi:10.1016/j.fluid.2014.05.032).

Assay: xn = mol fraction of the nth substance listed
Settings: Liquid, Constant-volume piezometry

CCO [ethanol] + O
Settings	mass density [kg/m3]
292.95 K, 2450 kPa, x1 = 0.073	974.2
292.95 K, 11320 kPa, x1 = 0.073	977.6
292.95 K, 21120 kPa, x1 = 0.073	981.2
292.95 K, 30930 kPa, x1 = 0.073	985
292.95 K, 39230 kPa, x1 = 0.073	988
297.05 K, 2490 kPa, x1 = 0.0163	990.8
297.05 K, 11280 kPa, x1 = 0.0163	993.5
297.05 K, 21070 kPa, x1 = 0.0163	997.5
297.05 K, 30810 kPa, x1 = 0.0163	1003.2
297.05 K, 39170 kPa, x1 = 0.0163	1006.1
298.15 K, 2560 kPa, x1 = 0.0946	965.8
298.15 K, 10120 kPa, x1 = 0.0946	968.6
298.15 K, 20060 kPa, x1 = 0.0946	972.4
298.15 K, 29980 kPa, x1 = 0.0946	976.1
298.15 K, 40030 kPa, x1 = 0.0946	979.8
298.35 K, 2590 kPa, x1 = 0.0343	984.1
298.35 K, 11280 kPa, x1 = 0.0343	987.9
298.35 K, 21300 kPa, x1 = 0.0343	991.9
298.35 K, 31040 kPa, x1 = 0.0343	995.7
298.35 K, 39150 kPa, x1 = 0.0343	998.6
323.15 K, 2570 kPa, x1 = 0.0163	980.6
323.15 K, 2610 kPa, x1 = 0.073	959.3
323.15 K, 2730 kPa, x1 = 0.0946	951.3
323.15 K, 10940 kPa, x1 = 0.073	962.8
323.15 K, 11140 kPa, x1 = 0.0946	954.9
323.15 K, 11390 kPa, x1 = 0.0163	984.4
323.15 K, 20710 kPa, x1 = 0.0946	958.8
323.15 K, 20790 kPa, x1 = 0.073	966.7
323.15 K, 21080 kPa, x1 = 0.0163	988.4
323.15 K, 30360 kPa, x1 = 0.073	970.6
323.15 K, 30890 kPa, x1 = 0.0163	992.3
323.15 K, 32400 kPa, x1 = 0.0946	963.3
323.15 K, 38480 kPa, x1 = 0.0163	995.2
323.15 K, 38600 kPa, x1 = 0.073	973.6
323.15 K, 39810 kPa, x1 = 0.0946	966.2
323.65 K, 2610 kPa, x1 = 0.0343	973.6
323.65 K, 11320 kPa, x1 = 0.0343	977.4
323.65 K, 21200 kPa, x1 = 0.0343	981.4
323.65 K, 30930 kPa, x1 = 0.0343	985.2
323.65 K, 39010 kPa, x1 = 0.0343	988.2
348.15 K, 2730 kPa, x1 = 0.0946	933.7
348.15 K, 3220 kPa, x1 = 0.0163	967.1
348.15 K, 3260 kPa, x1 = 0.0343	959.9
348.15 K, 3330 kPa, x1 = 0.073	943
348.15 K, 10980 kPa, x1 = 0.0163	970.6
348.15 K, 11060 kPa, x1 = 0.073	946.6
348.15 K, 11390 kPa, x1 = 0.0946	937.4
348.15 K, 11590 kPa, x1 = 0.0343	963.5
348.15 K, 20750 kPa, x1 = 0.0163	974.7
348.15 K, 20870 kPa, x1 = 0.073	950.8
348.15 K, 20870 kPa, x1 = 0.0946	941.6
348.15 K, 21160 kPa, x1 = 0.0343	967.5
348.15 K, 29500 kPa, x1 = 0.0163	978.3
348.15 K, 29730 kPa, x1 = 0.0946	945.4
348.15 K, 30400 kPa, x1 = 0.073	955
348.15 K, 30850 kPa, x1 = 0.0343	971.3
348.15 K, 37790 kPa, x1 = 0.0946	948.7
348.15 K, 39600 kPa, x1 = 0.073	958.9
348.15 K, 39860 kPa, x1 = 0.0343	974.7
348.15 K, 39910 kPa, x1 = 0.0163	982.3
373.15 K, 3330 kPa, x1 = 0.0946	908.6
373.15 K, 3370 kPa, x1 = 0.0163	950.2
373.15 K, 3390 kPa, x1 = 0.0343	942.1
373.15 K, 3510 kPa, x1 = 0.073	923.9
373.15 K, 11320 kPa, x1 = 0.0163	953.8
373.15 K, 11320 kPa, x1 = 0.073	927.7
373.15 K, 11390 kPa, x1 = 0.0946	912.8
373.15 K, 11470 kPa, x1 = 0.0343	945.9
373.15 K, 21080 kPa, x1 = 0.073	932.5
373.15 K, 21120 kPa, x1 = 0.0343	950.3
373.15 K, 21160 kPa, x1 = 0.0163	958.3
373.15 K, 21200 kPa, x1 = 0.0946	917.7
373.15 K, 30520 kPa, x1 = 0.0343	954.5
373.15 K, 30600 kPa, x1 = 0.0163	962.5
373.15 K, 30670 kPa, x1 = 0.073	937
373.15 K, 30850 kPa, x1 = 0.0946	922.3
373.15 K, 35700 kPa, x1 = 0.0163	964.6
373.15 K, 37230 kPa, x1 = 0.073	939.9
373.15 K, 39000 kPa, x1 = 0.0343	957.9
373.15 K, 39410 kPa, x1 = 0.0946	927.3
398.15 K, 3510 kPa, x1 = 0.0946	885.8
398.15 K, 3550 kPa, x1 = 0.0343	921.6
398.15 K, 3710 kPa, x1 = 0.0163	930.3
398.15 K, 3710 kPa, x1 = 0.073	901.9
398.15 K, 11430 kPa, x1 = 0.0946	890.4
398.15 K, 11510 kPa, x1 = 0.073	906.2
398.15 K, 11630 kPa, x1 = 0.0163	934.4
398.15 K, 11730 kPa, x1 = 0.0343	925.8
398.15 K, 21160 kPa, x1 = 0.073	911.4
398.15 K, 21200 kPa, x1 = 0.0946	896
398.15 K, 21360 kPa, x1 = 0.0163	939.3
398.15 K, 21530 kPa, x1 = 0.0343	930.7
398.15 K, 30790 kPa, x1 = 0.0163	943.7
398.15 K, 30790 kPa, x1 = 0.073	916.3
398.15 K, 30850 kPa, x1 = 0.0946	901.1
398.15 K, 30930 kPa, x1 = 0.0343	935.2
398.15 K, 37300 kPa, x1 = 0.0343	938.3
398.15 K, 39500 kPa, x1 = 0.073	920.7
398.15 K, 39610 kPa, x1 = 0.0946	905.3
398.15 K, 39890 kPa, x1 = 0.0163	948
423.15 K, 2680 kPa, x1 = 0.0163	906.7
423.15 K, 2680 kPa, x1 = 0.0343	897.3
423.15 K, 2750 kPa, x1 = 0.0946	860.1
423.15 K, 2760 kPa, x1 = 0.073	875.9
423.15 K, 10050 kPa, x1 = 0.0946	863.9
423.15 K, 10170 kPa, x1 = 0.0163	911
423.15 K, 10240 kPa, x1 = 0.0343	901.8
423.15 K, 10710 kPa, x1 = 0.073	881.1
423.15 K, 20110 kPa, x1 = 0.073	887.1
423.15 K, 20200 kPa, x1 = 0.0946	869.5
423.15 K, 20970 kPa, x1 = 0.0163	917
423.15 K, 21070 kPa, x1 = 0.0343	908.1
423.15 K, 30100 kPa, x1 = 0.0946	875.5
423.15 K, 30490 kPa, x1 = 0.073	893
423.15 K, 30570 kPa, x1 = 0.0163	922.4
423.15 K, 30640 kPa, x1 = 0.0343	913.4
423.15 K, 39560 kPa, x1 = 0.0163	927.2
423.15 K, 39680 kPa, x1 = 0.0343	918.2
423.15 K, 39860 kPa, x1 = 0.0946	882.2
423.15 K, 40110 kPa, x1 = 0.073	898.6
448.15 K, 3860 kPa, x1 = 0.0946	831.7
448.15 K, 3960 kPa, x1 = 0.0163	882.3
448.15 K, 4000 kPa, x1 = 0.073	849.3
448.15 K, 4080 kPa, x1 = 0.0343	872.1
448.15 K, 11550 kPa, x1 = 0.0946	837.9
448.15 K, 11920 kPa, x1 = 0.0163	887.5
448.15 K, 11960 kPa, x1 = 0.0343	877.7
448.15 K, 12160 kPa, x1 = 0.073	855.6
448.15 K, 21530 kPa, x1 = 0.0163	893.7
448.15 K, 21690 kPa, x1 = 0.073	862.7
448.15 K, 21690 kPa, x1 = 0.0946	845.8
448.15 K, 22180 kPa, x1 = 0.0343	884.2
448.15 K, 30990 kPa, x1 = 0.0946	852.6
448.15 K, 31010 kPa, x1 = 0.0343	889.8
448.15 K, 31050 kPa, x1 = 0.0163	899.4
448.15 K, 31170 kPa, x1 = 0.073	869.2
448.15 K, 37210 kPa, x1 = 0.073	873
448.15 K, 38340 kPa, x1 = 0.0163	903.5
448.15 K, 40060 kPa, x1 = 0.0343	894.8
448.15 K, 40140 kPa, x1 = 0.0946	858.6
